Measurements reported in publication PMC11676775, “Novel Copper(II) Coordination Compounds Containing Pyridine Derivatives of N^4-Methoxyphenyl-Thiosemicarbazones with Selective Anticancer Activity” (Molecules, 2024).
Like-named read-outs stand apart in the source and are kept apart here.

Columns and labels:
K-562 cancer cell line = assay: Cell proliferation MTT assay, K-562; type: cell-based, human
Procedure: (§1) The MTT assay, a colorimetric method, quantifies viable cells to evaluate cytotoxic effects on LNCaP, MCF-7, HepG-2, and K-562 cell lines. It measures the conversion of MTT to insoluble formazan by mitochondrial succinate dehydrogenase in active cells, reflecting cell viability. Compounds were dissolved in saline and DMSO (≤0.1%) and tested at 0.1, 1, and 10 μM concentrations, following Mosmann’s method.
(§2) Suspension cells were centrifuged, and adherent cells were trypsinized then diluted to 5 × 10⁴ cells/mL in RPMI 1640 with 10% fetal bovine serum. Subsequently, 5 × 10^3 cells in 100 μL were plated in 96-well plates and incubated for attachment. After adding compounds, cells were incubated for 24 h at 37 °C and 3% CO2. MTT reagent was introduced, and cells were monitored for formazan presence under a microscope.
(§3) Upon observing purple precipitate, detergent reagent was added, and plates were kept in the dark for 4 h. Absorbance was measured at 540 nm using a BioTek reader (Agilent, Santa Clara, CA, USA). Results, indicating percent inhibition, were calculated using the following formula:(3) I (%)=100−Abs540 nmsample /Abs540 nmcontrol ×100
(§4) IC50 values were determined as a measure of compound efficacy on cancer cell proliferation.

HeLa cancer cell line = assay: Cell proliferation resazurin assay, HeLa; type: cell-based, human; conditions: 24 h incubation
Procedure: (§5) The proliferation of HeLa, BxPC-3, RD, and MDCK cells was assessed using resazurin. Triplicate cultures of 1 × 10^4 cells in 100 μL of medium were incubated at 37 °C, 3% CO2, in 96-well plates. Compounds were dissolved in DMSO to form 1 × 10⁻^2 M solutions, then diluted with media and added to wells for a 24 h incubation. Following this, 20 μL of resazurin solution was added and incubated for 4 h. Absorbance was measured at 570 nm and 600 nm.
(§6) Percentage inhibition was calculated as follows:(2) I (%)=100−Abs570 nmsample−Abs600 nmsample /[…]−Abs600 nmcontrol ×100
(§7) The formula accounts for absorbance differences at 570 nm and 600 nm to determine cell viability.
(§8) The half maximal inhibitory concentration (IC50) indicated the effectiveness of the compounds on cell lines, as defined by FDA guidelines as the concentration needed for 50% inhibition in vitro. Toxicity was assessed via the median lethal concentration (LC50), the concentration causing death in 50% of juvenile daphnids, calculated using a dose–response equation via least squares fitting. All data are presented as mean ± standard deviation (SD). Statistical analyses were conducted with specialized software.

BxPC-3 cancer cell line = assay: Cell proliferation resazurin assay, BxPC-3; type: cell-based, human; conditions: BxPC-3, 24 h incubation
Procedure: as §5, §6, §7, §8

MCF-7 cancer cell line = assay: Cell proliferation MTT assay, MCF-7; type: cell-based, human
Procedure: as §1, §2, §3, §4

HL-60 cancer cell line = assay: Antiproliferative activity, HL-60; type: cell-based, human
MDCK normal cell line = assay: Cell proliferation resazurin assay, MDCK normal cell line; type: cell-based, canine; conditions: 24 h incubation
Procedure: as §5, §6, §7, §8

LNCaP cancer cell line = assay: Cell proliferation MTT assay, LNCaP; type: cell-based, human; conditions: 24 h incubation
Procedure: as §1, §2, §3, §4

HepG-2 cancer cell line = assay: Cell proliferation MTT assay, HepG-2; type: cell-based, human
Procedure: as §1, §2, §3, §4

RD cancer cell line = assay: Cell proliferation resazurin assay, RD; type: cell-based, human; conditions: 24 h incubation
Procedure: as §5, §6, §7, §8

Daphnia magna = assay: in vivo; conditions: pH 7
Procedure: Toxicity testing for certain substances was conducted using Daphnia magna, following ISO 6341:2012 guidelines. Daphnia magna were cultured parthenogenetically at the Institute of Zoology and fed Chlorella vulgaris grown aseptically. The algal medium included CaCl2, NaHCO3, KCl, and MgSO4·7H2O, with pH adjusted to 7.0 and O2 ≥ 6.00 mg/L. Juvenile daphnids were cultured in 24-well plates, each holding 10 daphnids in 1000 μL of each compound dilution. The bioassay tested concentrations from 0.1 to 100 μM to determine LC50, using doxorubicin as the positive control and a 0.1% DMSO solution as the negative control. The daphnids were incubated at 22 ± 2 °C with a 16 h/8 h light/dark cycle.
The experiment was conducted in triplicate to ensure accuracy.
as §8

[1] = system: HeLa, RD, and BxPC-3 cancer cell lines; assay: Antiproliferative activity, summary over HeLa, RD and BxPC-3 cell lines; type: cell-based; conditions: Homo sapiens; range over the three cancer cell lines; read-out: IC50 range against HeLa, RD, and BxPC-3 cell lines
Procedure: as §5, §6, §7, §8

[2] = Homo sapiens, K562, K-562, 24 h incubation
[3] = Homo sapiens, MCF7, MCF-7, 24 h incubation
[4] = Homo sapiens, HepG2, HepG-2, 24 h incubation
[5] = other: immersion in compound dilution

SMILES | IC50 (HeLa cancer cell line) [nM] | IC50 (BxPC-3 cancer cell line) [nM] | IC50 (MDCK normal cell line) [nM] | IC50 (RD cancer cell line) [nM] | IC50 (K-562 cancer cell line; [2]) [nM] | IC50 (HeLa cancer cell line; Homo sapiens) [nM] | IC50 (BxPC-3 cancer cell line; Homo sapiens) [nM] | IC50 (MCF-7 cancer cell line; [3]) [nM] | IC50 (HL-60 cancer cell line; Homo sapiens) [nM] | IC50 (MDCK normal cell line; Canis lupus familiaris) [nM] | IC50 (LNCaP cancer cell line; Homo sapiens) [nM] | IC50 (HepG-2 cancer cell line; [4]) [nM] | IC50 (RD cancer cell line; Homo sapiens) [nM] | LC50 at 24 h (Daphnia magna; [5]) [nM] | other results
COc1ccccc1NC(=NN=Cc1ccccn1)[S][Cu][Cl] [C1, [Cu(L^1)Cl]] | 800 ± 40 | 100 ± 20 | 300 ± 20 | 100 ± 10 |  |  |  |  |  |  |  |  |  |  | IC50 (K-562 cancer cell line; K-562, 24 h incubation): 64000 ± 1400 nM; IC50 (MCF-7 cancer cell line; MCF-7, 24 h incubation): 100000 ± 4200 nM; IC50 (HL-60 cancer cell line): 35000 ± 2100 nM; IC50 (LNCaP cancer cell line): 45000 ± 2100 nM; IC50 (HepG-2 cancer cell line; HepG-2, 24 h incubation): 68000 ± 4200 nM
COc1ccccc1NC(=NN=Cc1ccccn1)[S][Cu][O][N+](=O)[O-] [C2, [Cu(L^1)NO3]] | 800 ± 30 | 100 ± 10 | 600 ± 30 | 100 ± 10 |  |  |  |  |  |  |  |  |  |  | IC50 (K-562 cancer cell line; K-562, 24 h incubation): 500 ± 10 nM; IC50 (MCF-7 cancer cell line; MCF-7, 24 h incubation): 100 ± 50 nM; IC50 (HL-60 cancer cell line): 30 ± 1 nM; IC50 (LNCaP cancer cell line): 800 ± 30 nM; IC50 (HepG-2 cancer cell line; HepG-2, 24 h incubation): 400 ± 50 nM
COc1cccc(NC(=NN=Cc2ccccn2)[S][Cu][O][N+](=O)[O-])c1 [C4, [Cu(L^2)NO3]] | 100 ± 10 | 100 ± 50 | 1300 ± 400 | 100 ± 60 |  |  |  |  |  |  |  |  |  |  | 
COc1ccc(NC(=NN=Cc2ccccn2)[S][Cu][Cl])cc1 [C5, [Cu(L^3)Cl]] | 26100 ± 1200 | 9400 ± 1200 | 26600 ± 2400 | 19700 ± 2400 |  |  |  |  |  |  |  |  |  |  | 
COc1ccc(NC(=NN=Cc2ccccn2)[S][Cu][O][N+](=O)[O-])cc1 [C6, [Cu(L^3)NO3]] | 1100 ± 50 | 100 ± 40 | 2100 ± 1500 | 1200 ± 30 |  |  |  |  |  |  |  |  |  |  | IC50 (K-562 cancer cell line; K-562, 24 h incubation): 30 ± 2 nM; IC50 (MCF-7 cancer cell line; MCF-7, 24 h incubation): 600 ± 30 nM; IC50 (HL-60 cancer cell line): 30 ± 6 nM; IC50 (LNCaP cancer cell line): 300 ± 40 nM; IC50 (HepG-2 cancer cell line; HepG-2, 24 h incubation): 600 ± 30 nM
COc1cccc(NC(=NN=C(C)c2ccccn2)[S][Cu][O][N+](=O)[O-])c1 [C7, [Cu(L^4)NO3]] | 100 ± 40 | 200 ± 50 | 900 ± 40 | 500 ± 60 |  |  |  |  |  |  |  |  |  |  | 
COc1cccc(NC(=NN=C(C)c2ccccn2)[S][Cu][Cl])c1 [C8, [Cu(L^4)Cl]] | 100 ± 30 | 100 ± 70 | 1100 ± 60 | 200 ± 40 |  |  |  |  |  |  |  |  |  |  | 
[NH2][Pt]([NH2])([Cl])[Cl] [CDDP, cisplatin, reference compound] | 30900 ± 1200 | 11200 ± 1300 | 1500 ± 300 | 4600 ± 600 |  |  |  |  |  |  |  |  |  |  | 
COc1cccc2c1C(=O)c1c(O)c3c(c(O)c1C2=O)C[C@@](O)(C(=O)CO)C[C@@H]3O[C@H]1C[C@H](N)[C@H](O)[C@H](C)O1 [DOXO, doxorubicin, reference compound] |  |  |  |  | 400 ± 30 | 6200 ± 500 | 6000 ± 100 | 14000 ± 1500 | 1000 ± 300 | 10800 ± 1200 | 1100 ± 20 | 2800 ± 1100 | 16200 ± 1400 |  | LC50 at 24 h (Daphnia magna): 3600 nM
COc1ccccc1NC(=S)N/N=C/c1ccccn1 [HL^1, N-(2-Methoxyphenyl)-2-[(pyridin-2-yl)methylidene] hydrazine-1-carbothioamide] |  |  |  |  | 10000 ± 1200 | 81200 ± 5300 | 100 ± 50 | 10000 ± 1200 | 40 ± 6 | 10100 ± 1200 | 100000 ± 4900 | 800 ± 40 | 100000 ± 4200 | 15000 | 
COc1cccc(NC(=S)N/N=C/c2ccccn2)c1 [HL^2, N-(3-Methoxyphenyl)-2-[(pyridin-2-yl)methylidene] hydrazine-1-carbothioamide] |  |  |  |  | 900 ± 50 | 100 ± 10 | 100 ± 40 | 3500 ± 500 | 10 ± 4 | 400 ± 60 | 900 ± 50 | 600 ± 60 | 200 ± 30 | 13000 | IC50 [1]: 100 to 200 nM
COc1ccc(NC(=S)N/N=C/c2ccccn2)cc1 [HL^3, N-(4-Methoxyphenyl)-2-[(pyridin-2-yl)methylidene] hydrazine-1-carbothioamide] |  |  |  |  | 10000 ± 1600 | 100000 ± 5900 | 2100 ± 200 | 100000 ± 4600 | 10 ± 1 | 100000 ± 4600 | 100000 ± 4200 | 52000 ± 10 | 500 ± 40 | 35000 | IC50 [1]: 500 to 100000 nM
COc1cccc(NC(=S)N/N=C(\C)c2ccccn2)c1 [HL^4, N-(3-Methoxyphenyl)-2-[1-(pyridin-2-yl)ethylidene] hydrazine-1-carbothioamide] |  |  |  |  | 16000 ± 2200 | 5800 ± 1200 | 100 ± 30 | 55000 ± 2100 | 60 ± 4 | 14900 ± 1600 | 100000 ± 3100 | 3100 ± 300 | 11600 ± 500 | 14000 | IC50 [1]: 100 to 11000 nM
COc1cccc(NC(=S)N/N=C(/c2ccccc2)c2ccccn2)c1 [HL^5, N-(3-Methoxyphenyl)-2-[phenyl (pyridin-2-yl)methylidene] hydrazine-1-carbothioamide] |  |  |  |  | 100 ± 10 | 100000 ± 4200 | 3200 ± 300 | 5200 ± 600 | 20 ± 6 | 100000 ± 3800 | 8100 ± 1200 | 300 ± 10 | 500 ± 60 | 45000 | IC50 [1]: 500 to 100000 nM
